Source: PubChem BioAssay (NCI)
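Grown in 96-well plates, cells were treated for 48 hours with each compound at five concentrations. Insufficient inhibition: endpoint recorded as highest concentration tested. Abbreviation: GI50, concentration required for 50% inhibition of growth. TGI: total growth inhibition.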

Key:
Test in all cases: growth of human tumour cells (NCI), 48 h
SNB-75 CNS = tested on: SNB-75 CNS
M14 melanoma = tested on: M14 melanoma
CAKI-1 renal = tested on: CAKI-1 renal
NCI-H226 lung = tested on: NCI-H226 lung
UACC-62 melanoma = tested on: UACC-62 melanoma
EKVX NSCLC = tested on: EKVX NSCLC
OVCAR-8 ovarian = tested on: OVCAR-8 ovarian
U251 CNS = tested on: U251 CNS
KM12 colon = tested on: KM12 colon
T-47D breast = tested on: T-47D breast

| Structure (SMILES) | TGI (SNB-75 CNS) [µM] | TGI (M14 melanoma) [µM] | TGI (CAKI-1 renal) [µM] | TGI (NCI-H226 lung) [µM] | TGI (UACC-62 melanoma) [µM] | TGI (EKVX NSCLC) [µM] | TGI (OVCAR-8 ovarian) [µM] | TGI (U251 CNS) [µM] | TGI (KM12 colon) [µM] | GI50 (SNB-75 CNS) [µM] | GI50 (M14 melanoma) [µM] | GI50 (CAKI-1 renal) [µM] | GI50 (NCI-H226 lung) [µM] | GI50 (UACC-62 melanoma) [µM] | GI50 (EKVX NSCLC) [µM] | GI50 (OVCAR-8 ovarian) [µM] | GI50 (U251 CNS) [µM] | GI50 (KM12 colon) [µM] | GI50 (T-47D breast) [µM] | TGI (T-47D breast) [µM] |
| --- | --- | --- | --- | --- | --- | --- | --- | --- | --- | --- | --- | --- | --- | --- | --- | --- | --- | --- | --- | --- |
| C/C=C(/CCC1NCCC2c3ccccc3NC12)[Si](C)(C)C (configuration not stated) | 21.4 | 11.8 | 22.8 | 27.1 | 26.4 | 27.4 | 21.1 | 25.4 | 15.6 |  |  |  |  |  |  |  |  |  |  |  |
| COc1cccc(NC(=O)C(C)(C)C)c1SSc1c(NC(=O)C(C)(C)C)cccc1OC | > 74.4 | 32.5 | > 60.3 | > 93.6 | 45.4 | > 100 | 35.4 | 35.1 | > 95.5 |  |  |  |  |  |  |  |  |  |  |  |
| C1COCCOCCOCCOCCOCCO1.[Cl][Sn]([Cl])([c]1ccccc1)[c]1ccccc1 | 19.6 | 12.4 | 1.75 | 27.9 | 4.12 | 19 | 16.4 | 6.81 | 26.4 | 5.19 | 4.25 | 0.478 | 11.5 | 1.86 | 6.77 | 4.97 | 2.65 | 12.6 |  |  |
| Cn1c(=O)c2ccc(-c3ccc(Br)cc3)nc2n(C)c1=O | 73.5 | > 100 |  | > 100 | > 100 | > 100 | > 100 | > 100 | > 100 |  |  |  |  |  |  |  |  |  |  |  |
| CCCCCCCCCCCCCCCC(=O)N[C@H](/C=C/[C@H](O)CCCCCCCCCCCCC)CO | > 100 | > 100 |  | > 100 | > 100 | > 100 | > 100 | > 100 | > 100 | > 100 | > 100 |  | > 100 | > 100 | > 100 | > 100 | > 100 | > 100 | > 100 | > 100 |
| NC(=O)c1ncn(CCN2CCN(C(=O)NCCCCCCNC(=O)N3CCN(CCn4cnc(C(N)=O)c4N)CC3)CC2)c1N | > 100 | > 100 | > 100 | > 100 | > 100 | > 100 | > 100 | > 100 | > 100 |  |  |  |  |  |  |  |  |  |  |  |
| COC(=O)N/N=C(\C(=O)Nc1cccc([N+](=O)[O-])c1)c1nc2ccc([N+](=O)[O-])cc2[nH]c1=O | > 100 | > 100 |  | > 100 | 58.5 | > 100 | > 100 |  | > 100 |  |  |  |  |  |  |  |  |  |  |  |
| Cc1ccc(NC(=O)CC/C(CC(=O)C(C)(C)C)=N/NC(=O)C[N+](C)(C)C)cc1C |  | > 100 | > 100 | > 100 | > 100 | > 100 | > 100 | > 100 | > 100 |  |  |  |  |  |  |  |  |  |  |  |
| CSc1nc2c(nc(N)n2C2OC(COC(C)=O)C(OC(C)=O)C(OC(C)=O)C2OC(C)=O)c(=O)n1C (configuration not stated) | > 100 | > 100 | > 100 | > 100 | > 100 | > 100 | > 100 | > 100 | > 100 |  |  |  |  |  |  |  |  |  |  |  |
| NCCCn1c2c(c3ccc([N+](=O)[O-])cc3c1=O)C(=O)c1cc(-c3ccccc3)ccc1-2 | 1.87 | 2.37 | 3.21 |  | 3 | 3.45 | 0.884 | 0.313 | 0.818 | 0.579 | 1.12 | 1.67 |  | 1.55 | 1.61 | 0.31 | 0.172 | 0.291 |  |  |
| CC(=O)[CH-]C(=O)c1ccccc1.CC(=O)[CH-]C(=O)c1ccccc1.CC1(C)OCC(C2OC3OC(C)(C)OC3C2[O-])O1.CC1(C)OCC(C2OC3OC(C)(C)OC3C2[O-])O1.[Ti+4] (configuration not stated) | 28.5 | 37.6 | 79.7 |  | 39.6 | 30.1 | 34.3 |  | 42.8 | 11 | 16.1 | 29.9 |  | 16.9 | 14.1 | 13.9 |  | 13.2 |  |  |
| COc1cc2oc(-c3ccc(O)cc3O)c(CC=C(C)C)c(=O)c2c(O)c1/C=C/C(C)C | 9.04 | 3.56 |  | 9.98 | 10.4 | 15.3 | 3.18 | 6.12 | 7.51 |  |  |  |  |  |  |  |  |  |  | 23.4 |
| COC(=O)C1=CC2CC1C(S(=O)(=O)c1ccccc1)C2S(=O)(=O)c1ccccc1 (configuration not stated) |  | 25.5 | 20.8 | 40.2 | 67.9 |  | 38.5 | 35.8 |  |  |  |  |  |  |  |  |  |  |  |  |
| CCCCCCC/C=C/[C@H]1O[C@]2(O)C(=O)C=C3C[C@@H](O[C@@H]4O[C@H](CO)[C@@H](O)C(O)[C@@H]4O)C[C@@H]3[C@H]2C=C1C (some centres not stated) | 5.93 | 6.35 |  | 13.7 | 6.96 | 11 | 3.92 | 4.49 | 8.65 | 1.24 | 1.58 |  | 4.52 | 1.79 | 4.82 | 1.01 | 1.1 | 3.71 | 0.919 | 5.34 |
| CC(=O)[CH-]C(=O)c1ccccc1.CC(=O)[CH-]C(=O)c1ccccc1.CC[C@H](/C=C/C(C)[C@H]1CCC2[C@@H]3CC=C4C[C@@H]([O-])CC[C@]4(C)C3CC[C@@]21C)C(C)C.CC[O-].[Ti+4] (some centres not stated) | > 100 | > 100 | > 100 | > 100 | > 100 | > 100 | > 100 | > 100 | > 100 | 22.4 | > 100 | > 100 | > 100 | > 100 | > 100 | > 100 | > 100 | > 100 |  |  |
| O=C(CC1(O)C(=O)Nc2ccccc21)c1ccc(F)cc1 (configuration not stated) | > 100 | > 100 | > 100 | > 100 | > 100 | > 100 | > 100 |  |  |  |  |  |  |  |  |  |  |  |  |  |
| C/C(=N\NS(=O)(=O)c1ccc(C)cc1)c1cc2ccccc2n1C | > 100 | > 100 |  |  | > 100 | > 100 | > 100 | > 100 | > 100 |  |  |  |  |  |  |  |  |  |  |  |
| CN(C)CCC(CCN(C)C)=NOC(=O)c1ccccc1 | > 100 | > 100 | > 100 |  | > 100 | > 100 | > 100 | > 100 | > 100 |  |  |  |  |  |  |  |  |  |  |  |
| Cn1cc(-c2csc(-c3cn(CCCCN4CCCCC4)c4ccc(F)cc34)n2)c2cccnc21 |  |  |  | 3.38 |  |  |  |  |  |  |  |  | 1.68 |  |  |  |  |  | 15.7 | 41.4 |
